From patent US20070010671A1, “Novel quinazoline derivatives and methods of treatment related to the use thereof” (priority 2003, published 2007) come the findings set out here.

The target in the experiment is MCH receptor (Homo sapiens, UniProt Q99705). The experiment in a line: High throughput functional screening FLIPR/FDSS6000: inhibition of MCH-evoked intracellular Ca2+ changes. Type of experiment: cell-based. As to conditions: class by percent of control at 10^-7 M or IC50. An outline of the steps:
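Fluo4 fluorescence (Ex 488 nm, Em 530 nm) tracked MCH-evoked [Ca2+]i transients over 290 s by FLIPR or FDSS. Cells carried a constitutively active, non-endogenous receptor version. Compounds were added 3 min before a 50 nM MCH challenge.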

Molecules are shown by their SMILES.

In the case of `CN(C)c1nc(N[C@H]2CC[C@@H](NC(=S)Nc3cc(C(F)(F)F)ccc3Cl)CC2)nc2ccccc12` [compound 253], the class is 3 (Class 3: The value of percent of control at 10^−7 M was more than 60% or the value of IC50 was more than 200 nM.).

As to `CN(C)c1nc(N[C@H]2CC[C@@H](NC(=S)NCc3ccccc3Cl)CC2)nc2ccccc12` [compound 254, N-(2-chlorobenzyl)-N′-(cis-4-{[4-(dimethylamino)quinazolin-2-yl]amino}cyclohexyl)thiourea], the class was 1 (Class 1: The value of percent of control at 10^−7 M was less than 40% or the value of IC50 was less than 50 nM.).

Take `CCc1cccc(C)c1NC(=S)N[C@H]1CC[C@@H](Nc2nc(N(C)C)c3ccccc3n2)CC1` [compound 255, N-(cis-4-{[4-(dimethylamino)quinazolin-2-yl]amino}cyclohexyl)-N′-(2-ethyl-6-methylphenyl)thiourea]: the class was 1 (Class 1: The value of percent of control at 10^−7 M was less than 40% or the value of IC50 was less than 50 nM.).

As for `CC(C)c1ccccc1NC(=S)N[C@H]1CC[C@@H](Nc2nc(N(C)C)c3ccccc3n2)CC1` [compound 256, N-(cis-4-{[4-(dimethylamino)quinazolin-2-yl]amino}cyclohexyl)-N′-(2-isopropylphenyl)thiourea], the class is on record as 1 (Class 1: The value of percent of control at 10^−7 M was less than 40% or the value of IC50 was less than 50 nM.).

For `CSc1cccc(NC(=S)N[C@H]2CC[C@@H](Nc3nc(N(C)C)c4ccccc4n3)CC2)c1` [compound 257], the class was 3 (Class 3: The value of percent of control at 10^−7 M was more than 60% or the value of IC50 was more than 200 nM.).

Take `CN(C)c1nc(N[C@H]2CC[C@@H](NC(=S)NCc3ccc(Cl)c(Cl)c3)CC2)nc2ccccc12` [compound 258]: the class is listed as 3 (Class 3: The value of percent of control at 10^−7 M was more than 60% or the value of IC50 was more than 200 nM.).

For the molecule `COc1cc(NC(=S)N[C@H]2CC[C@@H](Nc3nc(N(C)C)c4ccccc4n3)CC2)cc(OC)c1` [compound 259], the class is given as 2 (Class 2: The value of percent of control at 10^−7 M was from 40% to 60% or the value of IC50 was from 50 nM to 200 nM.).

Consider `Cc1cc(C)cc(NC(=S)N[C@H]2CC[C@@H](Nc3nc(N(C)C)c4ccccc4n3)CC2)c1` [compound 260, N-(cis-4-{[4-(dimethylamino)quinazolin-2-yl]amino}cyclohexyl)-N′-(3,5-dimethylphenyl)thiourea], for which the class is 2 (Class 2: The value of percent of control at 10^−7 M was from 40% to 60% or the value of IC50 was from 50 nM to 200 nM.).

For `CN(C)c1nc(N[C@H]2CC[C@@H](NC(=S)Nc3cccc(OCc4ccccc4)c3)CC2)nc2ccccc12` [compound 261], the class is 3 (Class 3: The value of percent of control at 10^−7 M was more than 60% or the value of IC50 was more than 200 nM.).

As to `Cc1ccc(NC(=S)N[C@H]2CC[C@@H](Nc3nc(N(C)C)c4ccccc4n3)CC2)cc1Cl` [compound 262], the class was 2 (Class 2: The value of percent of control at 10^−7 M was from 40% to 60% or the value of IC50 was from 50 nM to 200 nM.).

For `COC(=O)c1cccc(NC(=S)N[C@H]2CC[C@@H](Nc3nc(N(C)C)c4ccccc4n3)CC2)c1` [compound 263], the class is 1 (Class 1: The value of percent of control at 10^−7 M was less than 40% or the value of IC50 was less than 50 nM.).

In the case of `CN(C)c1nc(N[C@H]2CC[C@@H](NC(=S)NCCCc3ccccc3)CC2)nc2ccccc12` [compound 264], the class is 3 (Class 3: The value of percent of control at 10^−7 M was more than 60% or the value of IC50 was more than 200 nM.).

As to `CN(C)c1nc(N[C@H]2CC[C@@H](NC(=S)Nc3ccc(OCc4ccccc4)cc3)CC2)nc2ccccc12` [compound 265], the class is 3 (Class 3: The value of percent of control at 10^−7 M was more than 60% or the value of IC50 was more than 200 nM.).

Take `Cc1cc(Br)cc(C)c1NC(=S)N[C@H]1CC[C@@H](Nc2nc(N(C)C)c3ccccc3n2)CC1` [compound 266, N-(4-bromo-2,6-dimethylphenyl)-N′-(cis-4-{[4-(dimethylamino)quinazolin-2-yl]amino}cyclohexyl)thiourea]: the class is given as 1 (Class 1: The value of percent of control at 10^−7 M was less than 40% or the value of IC50 was less than 50 nM.).

Regarding `Cc1cc(Br)ccc1NC(=S)N[C@H]1CC[C@@H](Nc2nc(N(C)C)c3ccccc3n2)CC1` [compound 267], the class is 1 (Class 1: The value of percent of control at 10^−7 M was less than 40% or the value of IC50 was less than 50 nM.).

Turning to `CN(C)c1nc(N[C@H]2CC[C@@H](NC(=S)Nc3ccc(Br)cc3C(F)(F)F)CC2)nc2ccccc12` [compound 268, N-[4-bromo-2-(trifluoromethyl)phenyl]-N′-(cis-4-{[4-(dimethylamino)quinazolin-2-yl]amino}cyclohexyl)thiourea], the class is 1 (Class 1: The value of percent of control at 10^−7 M was less than 40% or the value of IC50 was less than 50 nM.).

Take `Cc1cc(Cl)ccc1NC(=S)N[C@H]1CC[C@@H](Nc2nc(N(C)C)c3ccccc3n2)CC1` [compound 269]: the class is reported as 1 (Class 1: The value of percent of control at 10^−7 M was less than 40% or the value of IC50 was less than 50 nM.).

On to `CN(C)c1nc(N[C@H]2CC[C@@H](NC(=S)Nc3ccc(Cl)c([N+](=O)[O-])c3)CC2)nc2ccccc12` [compound 270], for which the class is reported as 3 (Class 3: The value of percent of control at 10^−7 M was more than 60% or the value of IC50 was more than 200 nM.).

For the molecule `CN(C)c1nc(N[C@H]2CC[C@@H](NC(=S)NCc3ccc(Cl)cc3)CC2)nc2ccccc12` [compound 271], the class is reported as 3 (Class 3: The value of percent of control at 10^−7 M was more than 60% or the value of IC50 was more than 200 nM.).

For the molecule `CCOC(=O)c1ccc(NC(=S)N[C@H]2CC[C@@H](Nc3nc(N(C)C)c4ccccc4n3)CC2)cc1` [compound 272], the class is listed as 3 (Class 3: The value of percent of control at 10^−7 M was more than 60% or the value of IC50 was more than 200 nM.).

As for `CN(C)c1nc(N[C@H]2CC[C@@H](NC(=S)NCc3ccc(F)cc3)CC2)nc2ccccc12` [compound 274, N-(cis-4-{[4-(dimethylamino)quinazolin-2-yl]amino}cyclohexyl)-N′-(4-fluorobenzyl)thiourea], the class is reported as 2 (Class 2: The value of percent of control at 10^−7 M was from 40% to 60% or the value of IC50 was from 50 nM to 200 nM.).

Consider `CC(C)c1ccc(NC(=S)N[C@H]2CC[C@@H](Nc3nc(N(C)C)c4ccccc4n3)CC2)cc1` [compound 275, N-(cis-4-{[4-(dimethylamino)quinazolin-2-yl]amino}cyclohexyl)-N′-(4-isopropylphenyl)thiourea], for which the class is listed as 2 (Class 2: The value of percent of control at 10^−7 M was from 40% to 60% or the value of IC50 was from 50 nM to 200 nM.).

Turning to `COc1ccc(NC(=S)N[C@H]2CC[C@@H](Nc3nc(N(C)C)c4ccccc4n3)CC2)c([N+](=O)[O-])c1` [compound 276], the class was 3 (Class 3: The value of percent of control at 10^−7 M was more than 60% or the value of IC50 was more than 200 nM.).

Take `COc1ccc(CNC(=S)N[C@H]2CC[C@@H](Nc3nc(N(C)C)c4ccccc4n3)CC2)cc1` [compound 277, N-(cis-4-{[4-(dimethylamino)quinazolin-2-yl]amino}cyclohexyl)-N′-(4-methoxybenzyl)thiourea]: the class is reported as 2 (Class 2: The value of percent of control at 10^−7 M was from 40% to 60% or the value of IC50 was from 50 nM to 200 nM.).
